Measurements taken from the supplement of paper PMC10307832.

Assays:
Assay in all cases: relative viability (nuclei count vs DMSO), 5 days (fraction); higher = more cells survive
Venetoclax + OSI-027 = compound: CC1(C)CCC(CN2CCN(c3ccc(C(=O)NS(=O)(=O)c4ccc(NCC5CCOCC5)c([N+](=O)[O-])c4)c(Oc4cnc5[nH]ccc5c4)c3)CC2)=C(c2ccc(Cl)cc2)C1 [Venetoclax] + COc1cccc2cc(-c3nc([C@H]4CC[C@H](C(=O)O)CC4)n4ncnc(N)c34)[nH]c12 [OSI-027] (partner 0.5 µM)
In short: (§1)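 A single step with final 0.05% Triton X-100, 1% formaldehyde and 1 ug/ml Hoechst fixed the cells and stained nuclei 5 days after treatment. Lung cancer cell lines in 1536-well plates had been treated by pin tool the day after seeding with one drug alone or a fixed anchor-drug dose plus five library-drug doses (not always all listed) in √10 steps, and nuclei were counted on 4× images. Relative viability is the ratio of nuclei in treated wells to nuclei in vehicle wells, taken as the median of duplicate plates.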

Venetoclax + Pictilisib = compound: CC1(C)CCC(CN2CCN(c3ccc(C(=O)NS(=O)(=O)c4ccc(NCC5CCOCC5)c([N+](=O)[O-])c4)c(Oc4cnc5[nH]ccc5c4)c3)CC2)=C(c2ccc(Cl)cc2)C1 [Venetoclax] + CS(=O)(=O)N1CCN(Cc2cc3nc(-c4cccc5[nH]ncc45)nc(N4CCOCC4)c3s2)CC1 [Pictilisib] (partner 1 µM)
In short: as §1

Selumetinib + Lapatinib = compound: Cn1cnc2c(F)c(Nc3ccc(Br)cc3Cl)c(C(=O)NOCCO)cc21 [Selumetinib] + CS(=O)(=O)CCNCc1ccc(-c2ccc3ncnc(Nc4ccc(OCc5cccc(F)c5)c(Cl)c4)c3c2)o1 [Lapatinib] (partner 2 µM)
In short: as §1

Selumetinib + Dasatinib = compound: Cn1cnc2c(F)c(Nc3ccc(Br)cc3Cl)c(C(=O)NOCCO)cc21 [Selumetinib] + Cc1nc(Nc2ncc(C(=O)Nc3c(C)cccc3Cl)s2)cc(N2CCN(CCO)CC2)n1 [Dasatinib] (partner 0.075 µM)
In short: as §1

| Cell Line | relative viability (Venetoclax + OSI-027; first compound 0.01 µM) | relative viability (Venetoclax + OSI-027; first compound 0.03162 µM) | relative viability (Venetoclax + OSI-027; first compound 0.1 µM) | relative viability (Venetoclax + OSI-027; first compound 0.3162 µM) | relative viability (Venetoclax + OSI-027; first compound 1 µM) | relative viability (Venetoclax + Pictilisib; first compound 0.01 µM) | relative viability (Venetoclax + Pictilisib; first compound 0.03162 µM) | relative viability (Venetoclax + Pictilisib; first compound 0.1 µM) | relative viability (Venetoclax + Pictilisib; first compound 0.3162 µM) | relative viability (Venetoclax + Pictilisib; first compound 1 µM) | relative viability (Selumetinib + Lapatinib; first compound 0.02 µM) | relative viability (Selumetinib + Lapatinib; first compound 0.06325 µM) | relative viability (Selumetinib + Lapatinib; first compound 0.2 µM) | relative viability (Selumetinib + Lapatinib; first compound 0.6325 µM) | relative viability (Selumetinib + Dasatinib; first compound 0.02 µM) | relative viability (Selumetinib + Dasatinib; first compound 0.06325 µM) | relative viability (Selumetinib + Dasatinib; first compound 0.2 µM) | relative viability (Selumetinib + Dasatinib; first compound 0.6325 µM) |
| --- | --- | --- | --- | --- | --- | --- | --- | --- | --- | --- | --- | --- | --- | --- | --- | --- | --- | --- |
| NCI-H1944 | 0.483 | 0.431 | 0.378 | 0.411 | 0.376 | 0.369 | 0.37 | 0.355 | 0.383 | 0.36 | 0.812 | 0.666 | 0.63 | 0.634 | 0.186 | 0.186 | 0.161 | 0.167 |
| NCI-H1793 | 0.299 | 0.37 | 0.207 | 0.239 | 0.186 | 0.371 | 0.445 | 0.328 | 0.241 | 0.321 | 0.827 | 0.581 | 0.503 | 0.504 | 0.393 | 0.375 | 0.296 | 0.294 |
| NCI-H647 | 0.69 | 0.769 | 0.625 | 0.589 | 0.509 | 0.443 | 0.386 | 0.435 | 0.439 | 0.45 | 0.964 | 0.872 | 0.876 | 0.957 | 0.187 | 0.2 | 0.167 | 0.154 |
| NCI-H596 | 0.704 | 0.748 | 0.694 | 0.748 | 0.587 | 0.402 | 0.408 | 0.354 | 0.391 | 0.364 | 0.961 | 1.03 | 0.921 | 0.68 | 0.625 | 0.546 | 0.565 | 0.483 |
| EKVX | 0.668 | 0.731 | 0.646 | 0.76 | 0.63 | 0.451 | 0.432 | 0.423 | 0.469 | 0.395 | 0.171 | 0.263 | 0.241 | 0.168 | 0.469 | 0.567 | 0.371 | 0.276 |
| NCI-H358 | 0.747 | 0.841 | 0.697 | 0.83 | 0.695 | 0.323 | 0.364 | 0.3 | 0.327 | 0.363 | 0.38 | 0.334 | 0.391 | 0.314 | 0.136 | 0.111 | 0.118 | 0.129 |
| H3255 | 0.577 | 0.541 | 0.493 | 0.506 | 0.668 | 0.47 | 0.527 | 0.457 | 0.486 | 0.482 | 0.238 | 0.267 | 0.218 | 0.243 | 0.41 | 0.358 | 0.329 | 0.344 |
| NCI-H1651 | 0.804 | 0.714 | 0.62 | 0.596 | 0.658 | 0.6 | 0.626 | 0.481 | 0.482 | 0.533 | 0.691 | 0.768 | 0.763 | 0.752 | 0.387 | 0.378 | 0.402 | 0.362 |
| NCI-H1395 | 0.623 | 0.603 | 0.605 | 0.656 | 0.662 | 0.643 | 0.74 | 0.611 | 0.602 | 0.633 | 0.982 | 0.997 | 0.93 | 1.05 | 0.408 | 0.415 | 0.432 | 0.445 |
| NCI-H23 | 0.592 | 0.625 | 0.525 | 0.683 | 0.439 | 0.595 | 0.501 | 0.381 | 0.479 | 0.508 | 1.24 | 1.02 | 0.825 | 0.957 | 0.808 | 0.644 | 0.5 | 0.397 |
| NCI-H1355 | 0.409 | 0.5 | 0.38 | 0.386 | 0.355 | 0.493 | 0.547 | 0.377 | 0.467 | 0.404 | 0.959 | 0.785 | 0.693 | 0.558 | 0.717 | 0.631 | 0.543 | 0.413 |
| NCI-H2085 | 0.838 | 0.769 | 0.707 | 0.746 | 0.53 | 0.458 | 0.48 | 0.417 | 0.507 | 0.502 | 0.75 | 0.706 | 0.713 | 0.68 | 0.25 | 0.23 | 0.204 | 0.215 |
| NCI-H322M | 0.667 | 0.575 | 0.605 | 0.564 | 0.48 | 0.558 | 0.511 | 0.488 | 0.532 | 0.487 | 0.524 | 0.479 | 0.439 | 0.438 | 0.248 | 0.237 | 0.24 | 0.263 |
| NCI-H1915 | 0.587 | 0.624 | 0.596 | 0.612 | 0.586 | 0.953 | 0.911 | 0.894 | 0.979 | 0.92 | 1.06 | 0.93 | 0.831 | 0.682 | 0.302 | 0.281 | 0.225 | 0.174 |
| HCC-827 | 0.799 | 0.839 | 0.776 | 0.733 | 0.755 | 1.01 | 1.31 | 0.912 | 0.929 | 1.02 | 0.175 | 0.182 | 0.187 | 0.18 | 0.24 | 0.331 | 0.26 | 0.294 |
| LXF-289 | 0.753 | 0.857 | 0.881 | 0.771 | 0.623 | 0.718 | 0.739 | 0.795 | 0.771 | 0.762 | 0.874 | 0.839 | 0.761 | 0.758 | 0.223 | 0.315 | 0.324 | 0.311 |
| LC-2-ad | 1.01 | 0.934 | 0.72 | 0.905 | 0.845 | 0.45 | 0.401 | 0.387 | 0.516 | 0.555 | 0.91 | 0.879 | 0.736 | 0.842 | 0.724 | 0.501 | 0.427 | 0.559 |
